Values quoted from earlier work as cited in patent publication US10650914B2, “Fresh water acute criteria prediction method based on quantitative structure-activity relationship for metals” (Chinese Research Academy of Environmental Sciences, priority 2015, dated 2020).

What was measured:
Carp = details: training set
Daphnia magna = details: for Endpoint Index: fatality rate, 48 hours, 13° C., pH 7.6, total hardness 240 mg/L; for Observed value (log-EC50): training set of leave-one-out internal validation

SMILES | Observed value (log-LC50) (Carp) | Endpoint Index (Daphnia magna) | Observed value (log-EC50) (Daphnia magna)
[Cd] [Cadmium] | 0.331 | – | –
[Cr] [Chromium] | 2.439 | – | –
[Cu] [Copper] | 1.097 | 0.014 | −0.6601
[Zn] [Zinc] | 2.079 | 0.13 | 0.3010
[Ag] [Silver] | – | 0.014 | −0.8873
[Ni] [Nickel] | 2.246 | 5.7 | 1.9850
[Pb] [Lead] | – | 8.69 | 1.6231
[Fe] [Iron] | – | 2.92 | 1.7172
